Results on 9 compounds are retold here after ChEMBL document CHEMBL6074681, “High potency 3-carboxy-2-methylbenzofuran pendrin inhibitors as novel diuretics” (Eur J Med Chem, 2025).

Data set [1] in a line: Cytotoxicity against rat FRT cells assessed as cell viability at 10 uM measured after 24 hrs by Alamar blue dye based assay. The format is toxicity. (In general: The colour change of resazurin is a common sign of viable cells or microbes.)
Data set [2] addresses T1, Chloride anion exchanger (Homo sapiens) (UniProt P40879).
T1 sequence (whole entry): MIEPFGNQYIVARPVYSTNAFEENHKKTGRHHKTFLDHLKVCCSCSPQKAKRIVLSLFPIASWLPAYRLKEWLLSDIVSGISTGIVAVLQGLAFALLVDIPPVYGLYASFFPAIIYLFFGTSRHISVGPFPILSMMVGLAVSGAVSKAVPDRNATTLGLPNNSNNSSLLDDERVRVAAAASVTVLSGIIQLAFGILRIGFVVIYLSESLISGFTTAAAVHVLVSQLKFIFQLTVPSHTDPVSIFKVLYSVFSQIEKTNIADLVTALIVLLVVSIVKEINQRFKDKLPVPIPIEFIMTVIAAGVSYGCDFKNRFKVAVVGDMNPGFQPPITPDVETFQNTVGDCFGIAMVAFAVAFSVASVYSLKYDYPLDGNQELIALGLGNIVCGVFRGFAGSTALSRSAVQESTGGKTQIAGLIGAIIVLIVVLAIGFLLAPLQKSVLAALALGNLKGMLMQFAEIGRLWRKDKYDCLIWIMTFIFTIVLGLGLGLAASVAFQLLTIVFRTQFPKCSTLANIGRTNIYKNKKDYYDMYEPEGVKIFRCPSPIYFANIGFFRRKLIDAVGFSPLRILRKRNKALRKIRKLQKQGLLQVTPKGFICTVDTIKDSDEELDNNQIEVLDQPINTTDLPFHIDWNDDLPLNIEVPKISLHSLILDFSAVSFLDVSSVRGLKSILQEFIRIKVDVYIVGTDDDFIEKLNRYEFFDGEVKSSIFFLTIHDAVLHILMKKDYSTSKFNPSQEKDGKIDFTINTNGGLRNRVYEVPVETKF
Put plainly: Inhibition of SLC26A3 (unknown origin) transfected in rat FRT cells at 25 uM by YFP fluorescence quenching assay. The class given is cell-based.

Data set [3] addresses Cystic fibrosis transmembrane conductance regulator (Homo sapiens) (UniProt P13569). Put plainly: Inhibition of CFTR (unknown origin) transfected in rat FRT cells at 25 uM by YFP fluorescence quenching assay. The format is cell-based.
Data set [4] addresses T2, Pendrin (Homo sapiens) (UniProt O43511).
T2 sequence (whole entry): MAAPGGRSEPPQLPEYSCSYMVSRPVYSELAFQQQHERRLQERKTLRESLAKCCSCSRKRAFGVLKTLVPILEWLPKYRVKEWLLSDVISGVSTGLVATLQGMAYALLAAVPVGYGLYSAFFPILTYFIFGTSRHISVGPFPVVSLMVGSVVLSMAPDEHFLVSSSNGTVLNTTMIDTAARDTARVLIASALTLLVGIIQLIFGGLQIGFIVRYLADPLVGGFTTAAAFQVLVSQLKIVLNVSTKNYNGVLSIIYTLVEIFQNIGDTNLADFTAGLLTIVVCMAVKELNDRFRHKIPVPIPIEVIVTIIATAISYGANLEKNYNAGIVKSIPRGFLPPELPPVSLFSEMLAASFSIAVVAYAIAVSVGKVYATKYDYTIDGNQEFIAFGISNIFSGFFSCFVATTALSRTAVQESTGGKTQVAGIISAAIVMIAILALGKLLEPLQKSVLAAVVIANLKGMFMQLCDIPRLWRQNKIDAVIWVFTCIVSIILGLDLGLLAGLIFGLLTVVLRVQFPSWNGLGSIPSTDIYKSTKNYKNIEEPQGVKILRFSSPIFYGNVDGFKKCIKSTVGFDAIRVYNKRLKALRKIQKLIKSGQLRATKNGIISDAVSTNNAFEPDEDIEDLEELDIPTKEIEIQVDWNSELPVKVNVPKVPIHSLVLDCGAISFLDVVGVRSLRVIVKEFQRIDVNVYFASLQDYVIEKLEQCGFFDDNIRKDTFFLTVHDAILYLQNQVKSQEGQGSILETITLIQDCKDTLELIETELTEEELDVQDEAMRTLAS
Nature of the data set: Inhibition of Pendrin (unknown origin) transfected in rat FRT cells at 25 uM by YFP fluorescence quenching assay relative to control. The format is cell-based.

Data set [5] deals with T3, Solute carrier family 26 member 6 (Homo sapiens) (UniProt Q9BXS9).
T3 sequence (whole entry): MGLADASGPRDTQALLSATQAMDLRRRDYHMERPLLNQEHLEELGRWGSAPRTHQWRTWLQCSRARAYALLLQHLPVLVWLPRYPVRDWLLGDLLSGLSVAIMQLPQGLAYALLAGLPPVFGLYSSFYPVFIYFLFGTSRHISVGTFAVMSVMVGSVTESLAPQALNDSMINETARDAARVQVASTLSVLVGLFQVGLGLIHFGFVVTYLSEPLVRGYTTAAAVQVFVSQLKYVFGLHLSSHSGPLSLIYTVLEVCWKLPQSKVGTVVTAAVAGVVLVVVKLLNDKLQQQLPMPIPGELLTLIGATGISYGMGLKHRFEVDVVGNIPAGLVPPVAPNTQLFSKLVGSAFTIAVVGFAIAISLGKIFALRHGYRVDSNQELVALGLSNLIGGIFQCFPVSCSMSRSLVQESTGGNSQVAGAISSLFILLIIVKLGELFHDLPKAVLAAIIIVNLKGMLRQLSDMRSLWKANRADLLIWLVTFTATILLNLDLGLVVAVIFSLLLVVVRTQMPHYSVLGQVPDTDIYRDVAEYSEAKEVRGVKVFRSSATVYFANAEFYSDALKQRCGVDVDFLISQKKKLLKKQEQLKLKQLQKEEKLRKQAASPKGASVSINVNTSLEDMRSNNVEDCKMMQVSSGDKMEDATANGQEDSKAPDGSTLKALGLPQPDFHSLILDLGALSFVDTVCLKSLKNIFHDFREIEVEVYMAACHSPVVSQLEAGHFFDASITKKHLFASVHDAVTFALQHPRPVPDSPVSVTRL
Nature of the data set: Inhibition of SLC26A6 (unknown origin) transfected in rat FRT cells at 25 uM by YFP fluorescence quenching assay. The class given is cell-based.

Data set [6] has as its target T4, Pendrin (Homo sapiens, UniProt O43511).
T4 sequence (O43511 whole entry): T2 sequence (whole entry)
Put plainly: Inhibition of Pendrin (unknown origin) transfected in rat FRT cells assessed as reduction in Cl-/I- ions exchange by YFP fluorescence quenching assay. The class given is cell-based.

Data set [7] concerns the target T4, Pendrin. Nature of the data set: Inhibition of Pendrin (unknown origin).
Data set [8] concerns the target T2, Pendrin (Homo sapiens). Nature of the data set: Potency index, ratio of PDSinh-A01 IC50 to test compound IC50 for Pendrin (unknown origin) transfected in rat FRT cells assessed as reduction in Cl-/I- ions exchange by YFP fluorescence quenching assay. The class given is cell-based.
Data set [9] has as its system Mus musculus. Nature of the data set: Potentiation of Furosemide-induced diuretic effect in mouse model at 10 mg/kg, ip measured for 3 hrs relative to control. The class given is functional.
Data set [10] relates to Mus musculus. Put plainly: Effect on urine volume in mouse model at 10 mg/kg, ip measured for 3 hrs. The format is functional, organism-based.
Data set [11] relates to Mus musculus. Put plainly: Effect on osmolality in mouse model at 10 mg/kg, ip measured for 3 hrs in presence of Furosemide. The class given is functional, organism-based.
For data set [12], the system named is Mus musculus. Put plainly: Effect on osmolality in mouse model at 10 mg/kg, ip measured for 3 hrs. The format is functional, organism-based.
Data set [13] is described as follows: Selectivity index, ratio of IC50 for SLC26A6 (unknown origin) transfected in rat FRT cells to IC50 for Pendrin (unknown origin) transfected in rat FRT cells. The class given is cell-based.
Data set [14] concerns the target T5, Solute carrier family 26 member 6 (Homo sapiens, UniProt Q9BXS9).
T5 sequence (Q9BXS9 whole entry): T3 sequence (whole entry)
Nature of the data set: Inhibition of SLC26A6 (unknown origin) transfected in rat FRT cells by YFP fluorescence quenching assay. The format is cell-based.

Usually inhibition stands for the change of the read-out against control, counted positive when it falls. The term IC50 denotes the concentration that gives 50% inhibition.

Activity calls are given as the source filed them. No cut-off for these calls is given here.

Chain of Cystic fibrosis transmembrane conductance regulator (Homo sapiens) (P13569 whole entry, looked up): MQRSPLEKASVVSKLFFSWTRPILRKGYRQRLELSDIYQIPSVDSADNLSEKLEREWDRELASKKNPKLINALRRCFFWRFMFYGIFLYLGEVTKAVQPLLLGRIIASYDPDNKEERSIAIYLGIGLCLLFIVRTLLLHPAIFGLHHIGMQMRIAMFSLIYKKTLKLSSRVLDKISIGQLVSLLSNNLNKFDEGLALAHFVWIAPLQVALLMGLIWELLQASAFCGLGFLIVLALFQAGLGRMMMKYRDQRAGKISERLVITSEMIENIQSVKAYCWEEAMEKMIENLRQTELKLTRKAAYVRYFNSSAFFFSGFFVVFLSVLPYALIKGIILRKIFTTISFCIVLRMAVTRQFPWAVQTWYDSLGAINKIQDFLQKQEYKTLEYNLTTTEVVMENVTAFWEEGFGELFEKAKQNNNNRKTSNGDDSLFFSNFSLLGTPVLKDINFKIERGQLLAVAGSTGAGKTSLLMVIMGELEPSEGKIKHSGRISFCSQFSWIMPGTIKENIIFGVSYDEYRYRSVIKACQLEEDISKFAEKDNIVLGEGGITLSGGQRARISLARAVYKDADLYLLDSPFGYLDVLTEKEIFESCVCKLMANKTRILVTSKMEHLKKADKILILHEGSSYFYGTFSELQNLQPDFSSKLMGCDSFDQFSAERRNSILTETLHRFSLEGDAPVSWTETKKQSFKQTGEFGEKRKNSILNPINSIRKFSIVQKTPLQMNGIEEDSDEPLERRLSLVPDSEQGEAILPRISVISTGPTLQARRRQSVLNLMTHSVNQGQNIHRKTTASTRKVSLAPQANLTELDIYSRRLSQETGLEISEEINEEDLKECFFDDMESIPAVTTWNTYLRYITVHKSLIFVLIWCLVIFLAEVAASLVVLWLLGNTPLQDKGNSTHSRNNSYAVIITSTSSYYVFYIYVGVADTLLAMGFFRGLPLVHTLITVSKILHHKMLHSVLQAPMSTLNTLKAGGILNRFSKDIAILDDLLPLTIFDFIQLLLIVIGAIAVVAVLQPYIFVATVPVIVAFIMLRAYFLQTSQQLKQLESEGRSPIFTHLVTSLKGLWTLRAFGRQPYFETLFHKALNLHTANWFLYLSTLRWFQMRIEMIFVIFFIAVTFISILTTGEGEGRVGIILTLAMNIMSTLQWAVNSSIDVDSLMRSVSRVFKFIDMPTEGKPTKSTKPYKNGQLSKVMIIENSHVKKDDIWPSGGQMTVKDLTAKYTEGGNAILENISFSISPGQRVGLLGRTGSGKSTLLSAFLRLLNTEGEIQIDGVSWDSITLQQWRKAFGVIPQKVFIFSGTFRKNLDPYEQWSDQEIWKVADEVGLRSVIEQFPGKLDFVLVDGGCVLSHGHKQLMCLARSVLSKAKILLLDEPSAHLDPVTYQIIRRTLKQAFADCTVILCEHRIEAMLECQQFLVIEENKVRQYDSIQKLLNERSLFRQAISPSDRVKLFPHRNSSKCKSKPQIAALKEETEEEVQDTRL

`Cc1oc2ccc(OCc3ccccc3Cl)cc2c1C(=O)O`: the Activity result in data set [1] is “Non-toxic”. The inhibition entry in data set [2] is “inactive”. Also, the inhibition entry was “Active; Exhibited Minimal Effect” in data set [3], 100% at Pendrin (Homo sapiens) [4] and “Active; Exhibited Minimal Inhibition” in [5].

Regarding `Cc1oc2ccc(OCc3cccc(Cl)c3)cc2c1C(=O)O`, at Pendrin [6], the concentration for half-maximal inhibition (IC50) was 4.8 µM.

For `Cc1oc2ccc(OCc3ccccc3)cc2c1C(=O)O`, on Pendrin [6], the IC50 worked out at 3.1 µM.

In the case of `Cn1nc(COc2cccc(F)c2)c2c1CCN(C(=O)Nc1ccc(Cl)cc1)C2`, the IC50 against Pendrin [7] was found to be 12.5 µM.

Take `Cc1oc2ccc(OCc3ccc(Br)cc3)cc2c1C(=O)O`: on Pendrin [6], the IC50 was found to be 4.1 µM. The Ratio IC50 on Pendrin (Homo sapiens) [8] came out at 3.

For the compound `Cc1oc2ccc(OCc3cc(F)ccc3Cl)cc2c1C(=O)O`, the Activity result in data set [1] is “Non-toxic”; in the data set on Mus musculus [9], 45%; in the data set with Mus musculus [10], “No effect”; in the data set with Mus musculus [11] it was “No effect”; in the data set on Mus musculus [12] it was “No effect”. Besides, in [2], the inhibition entry was “inactive”. Further, the inhibition result in [3] is “Active; Exhibited Minimal Effect”; against Pendrin (Homo sapiens) [4], 100%. Moreover, in data set [5], the inhibition result is “Active”. Moreover, in data set [13], the Ratio IC50 was 20. For the same compound, the half-maximal inhibitory concentration (IC50) was determined as 0.48 µM at Pendrin [6] and 10 µM in data set [14].

With `Cc1oc2ccc(OCc3cccc(Br)c3)cc2c1C(=O)O`, the IC50 on Pendrin [6] is 8.2 µM.

In the case of `Cc1oc2ccc(OCc3ccc(Cl)cc3)cc2c1C(=O)O`, at Pendrin [6], the IC50 is 5 µM.

Turning to `Cc1ccccc1COc1ccc2oc(C)c(C(=O)O)c2c1`, the IC50 at Pendrin [6] was 1.44 µM.
